Values of other authors, collected in patent US20020127223A1, “Method for reducing side effects of a drug” (priority 1984, published 2002).

Settings: administered 3 hours following methotrexate

Question: For `Nc1nc(=O)c2c([nH]1)NCC(CNc1ccc(C(=O)N[C@@H](CCC(=O)O)C(=O)O)cc1)N2C=O` (mixture of isomers) [folinic acid], which “Attenuation of the toxic effects of methotrexate” value is on record?
Answer: attenuate the toxic effects of methotrexate
